In paper PMC6193938, “Characterization of a novel AICARFT inhibitor which potently elevates ZMP and has anti-tumor activity in murine models” (Scientific Reports, 2018):
Where two headings read alike, the source gives them in different places.

Experiments:
TRKB = target: T1, TRKB (Homo sapiens, UniProt Q16620); test: CEREP protein kinase assay; format: biochemical
T1 construct: purchased CEREP Panlabs (Eurofins)

MDA-MB-231met2 xenograft = test: Antitumor efficacy and tumor metabolites, mouse xenograft; format: in vivo; details: after 22 days of dosing
FMS = target: T2, FMS (Homo sapiens, UniProt P07333); test: CEREP protein kinase assay; format: biochemical
T2 construct: purchased CEREP Panlabs (Eurofins)
T2 sequence (P07333 20-972): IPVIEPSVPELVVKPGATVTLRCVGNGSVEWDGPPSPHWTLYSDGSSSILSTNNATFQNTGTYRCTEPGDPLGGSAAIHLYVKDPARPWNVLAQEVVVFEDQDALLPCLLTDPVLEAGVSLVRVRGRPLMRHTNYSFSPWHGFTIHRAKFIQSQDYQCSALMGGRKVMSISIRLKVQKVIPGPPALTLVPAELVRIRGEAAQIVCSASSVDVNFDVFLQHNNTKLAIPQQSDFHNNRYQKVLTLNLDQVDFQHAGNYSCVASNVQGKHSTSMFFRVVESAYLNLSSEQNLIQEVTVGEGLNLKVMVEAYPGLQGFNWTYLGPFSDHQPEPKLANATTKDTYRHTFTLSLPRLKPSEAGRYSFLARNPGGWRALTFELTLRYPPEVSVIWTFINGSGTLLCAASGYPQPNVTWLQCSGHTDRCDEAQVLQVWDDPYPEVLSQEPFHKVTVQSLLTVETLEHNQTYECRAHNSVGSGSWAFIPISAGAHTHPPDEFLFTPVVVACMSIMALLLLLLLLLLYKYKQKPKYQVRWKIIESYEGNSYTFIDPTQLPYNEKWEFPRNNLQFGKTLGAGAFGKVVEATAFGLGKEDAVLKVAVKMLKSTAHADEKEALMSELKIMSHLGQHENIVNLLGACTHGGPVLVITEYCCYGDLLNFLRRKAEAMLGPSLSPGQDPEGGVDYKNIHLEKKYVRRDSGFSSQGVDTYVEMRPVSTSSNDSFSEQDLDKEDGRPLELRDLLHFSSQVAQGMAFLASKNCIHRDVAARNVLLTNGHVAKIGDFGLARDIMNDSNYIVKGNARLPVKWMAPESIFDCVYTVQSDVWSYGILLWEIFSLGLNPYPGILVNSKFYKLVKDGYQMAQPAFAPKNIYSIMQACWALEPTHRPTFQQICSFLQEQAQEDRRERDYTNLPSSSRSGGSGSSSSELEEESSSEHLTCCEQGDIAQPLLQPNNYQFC

MDA-MB-231met2 cells = test: MS detection of ZMP in cultured cells; format: cell-based, human; details: regular RPMI, calculated with 4 pL cell volume
Description: To mimic human plasma levels, low folate media is traditionally used in which the folate comes only from the defined fetal bovine serum. […] Because LSN3213128 would be dosed in mice on normal diet, cell line screening was performed under standard tissue culture conditions to identify cell lines sensitive to treatment under high folate conditions. In order to compare tissue culture values with tumor levels, an average 4 pL cell volume[36] was used to calculate cellular ZMP concentrations. In MDA-MB-231[…] cells using regular RPMI, the peak intracellular ZMP levels are about 770 μM while in the salvage deficient A9 cells ZMP is 6,500 μM. […] It is not surprising that in vivo in mice on standard chow where folate plasma levels are >10-fold lower than tissue culture that tumor ZMP levels are also lower. […] ZMP was detected in cultured cells via mass spec analysis. Cells were plated in 96-well plates at 25,000 cells per well in 100 μL with either high or low folate RPMI media and incubated overnight at 37 °C with 5% CO2. […] […] dUMP were detected using positive ion TurboIonSpray® multiple reaction monitoring mode and the data were processed with AB Sciex MultiQuantTM. Back-calculated ZMP concentrations were fit to a four-parameter logistic equation using ACTIVITYBASE 4.0 to determine EC50 values relative to the maximum observed metabolite levels.

JAK1 = target: T3, JAK1 (Homo sapiens, UniProt P23458); test: CEREP protein kinase assay; format: biochemical
T3 construct: purchased CEREP Panlabs (Eurofins)
T3 sequence (P23458 whole entry): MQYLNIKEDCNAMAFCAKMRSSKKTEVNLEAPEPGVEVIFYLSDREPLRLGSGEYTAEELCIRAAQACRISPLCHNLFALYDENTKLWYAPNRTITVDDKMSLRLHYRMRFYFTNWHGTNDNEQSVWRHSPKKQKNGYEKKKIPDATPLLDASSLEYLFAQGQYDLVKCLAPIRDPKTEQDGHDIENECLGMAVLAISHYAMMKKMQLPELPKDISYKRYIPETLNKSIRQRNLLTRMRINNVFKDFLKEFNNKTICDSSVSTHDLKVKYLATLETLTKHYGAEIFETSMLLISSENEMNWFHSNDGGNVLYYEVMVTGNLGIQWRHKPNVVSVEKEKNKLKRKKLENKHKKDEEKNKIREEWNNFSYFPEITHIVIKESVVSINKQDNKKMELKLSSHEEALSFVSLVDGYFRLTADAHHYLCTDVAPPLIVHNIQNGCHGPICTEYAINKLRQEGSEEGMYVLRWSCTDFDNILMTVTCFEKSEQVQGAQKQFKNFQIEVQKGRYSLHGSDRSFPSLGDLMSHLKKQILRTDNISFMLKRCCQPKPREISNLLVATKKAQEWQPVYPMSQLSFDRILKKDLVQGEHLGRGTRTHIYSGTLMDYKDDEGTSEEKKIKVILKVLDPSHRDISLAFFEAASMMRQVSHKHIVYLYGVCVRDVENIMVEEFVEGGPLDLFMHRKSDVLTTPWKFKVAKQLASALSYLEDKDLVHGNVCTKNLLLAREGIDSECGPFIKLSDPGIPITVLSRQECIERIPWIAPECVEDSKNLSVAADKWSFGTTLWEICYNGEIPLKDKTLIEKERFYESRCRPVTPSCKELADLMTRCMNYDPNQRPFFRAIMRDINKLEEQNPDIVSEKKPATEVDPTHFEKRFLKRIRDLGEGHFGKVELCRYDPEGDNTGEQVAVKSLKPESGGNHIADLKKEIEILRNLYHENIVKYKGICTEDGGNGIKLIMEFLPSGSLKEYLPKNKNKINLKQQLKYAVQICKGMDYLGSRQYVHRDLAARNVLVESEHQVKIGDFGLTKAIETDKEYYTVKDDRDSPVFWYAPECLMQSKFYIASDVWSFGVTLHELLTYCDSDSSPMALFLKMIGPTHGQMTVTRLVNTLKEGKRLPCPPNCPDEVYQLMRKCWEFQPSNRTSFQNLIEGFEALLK

RSK3 = target: T4, RSK3 (Homo sapiens, UniProt Q15349); test: CEREP protein kinase assay; format: biochemical
T4 construct: purchased CEREP Panlabs (Eurofins)
T4 sequence (Q15349 whole entry): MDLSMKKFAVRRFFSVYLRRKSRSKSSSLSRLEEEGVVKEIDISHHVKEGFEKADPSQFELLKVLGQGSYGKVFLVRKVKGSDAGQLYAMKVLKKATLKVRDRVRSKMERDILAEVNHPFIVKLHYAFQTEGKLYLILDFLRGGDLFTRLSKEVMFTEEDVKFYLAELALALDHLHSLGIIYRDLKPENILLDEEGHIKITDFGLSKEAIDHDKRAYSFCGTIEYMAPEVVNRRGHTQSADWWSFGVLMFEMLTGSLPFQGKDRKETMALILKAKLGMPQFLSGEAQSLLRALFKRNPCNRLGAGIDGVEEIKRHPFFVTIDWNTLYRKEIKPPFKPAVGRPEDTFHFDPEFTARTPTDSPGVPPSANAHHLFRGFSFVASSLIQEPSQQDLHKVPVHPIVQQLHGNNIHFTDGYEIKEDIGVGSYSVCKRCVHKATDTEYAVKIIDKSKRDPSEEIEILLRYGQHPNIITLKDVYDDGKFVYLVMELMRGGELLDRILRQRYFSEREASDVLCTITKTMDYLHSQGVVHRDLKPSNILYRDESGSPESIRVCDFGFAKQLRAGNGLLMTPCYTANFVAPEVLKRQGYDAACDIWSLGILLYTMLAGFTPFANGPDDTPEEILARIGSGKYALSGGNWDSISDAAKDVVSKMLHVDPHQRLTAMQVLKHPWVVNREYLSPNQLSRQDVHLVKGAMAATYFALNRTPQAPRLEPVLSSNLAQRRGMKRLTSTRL

DRAK1 = target: T5, DRAK1 (Homo sapiens, UniProt Q9UEE5); test: CEREP protein kinase assay; format: biochemical
T5 construct: purchased CEREP Panlabs (Eurofins)
T5 sequence (Q9UEE5 1-414): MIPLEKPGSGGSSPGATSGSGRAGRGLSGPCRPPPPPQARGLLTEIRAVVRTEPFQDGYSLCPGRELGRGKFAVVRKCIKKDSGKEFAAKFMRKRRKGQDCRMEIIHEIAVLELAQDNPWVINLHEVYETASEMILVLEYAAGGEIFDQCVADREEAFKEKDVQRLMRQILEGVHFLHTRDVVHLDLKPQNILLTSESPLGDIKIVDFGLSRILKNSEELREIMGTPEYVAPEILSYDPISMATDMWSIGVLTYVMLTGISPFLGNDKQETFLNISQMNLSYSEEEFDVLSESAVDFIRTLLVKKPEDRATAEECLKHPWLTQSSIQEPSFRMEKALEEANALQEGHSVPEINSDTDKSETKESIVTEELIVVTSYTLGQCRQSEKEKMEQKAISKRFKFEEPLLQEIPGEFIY

A549 (lung) = test: Low folate & high folate in vitro proliferation assay (Alamar Blue); format: cell-based; details: Homo sapiens, low folate RPMI media
Description: (§1) Cells lines were acquired from cell banks, see supplemental material, grown using the cell banks recommended culture conditions (Supplemental Table 3). In some experiments noted “low folate” the cells were washed and grown in folate free RPMI-1640 media (Gibco #27016-021) supplemented with 5 ml 1 M Hepes, 5 ml 100 mM Na pyruvate, 2.5 mg/ml glucose and 10% defined FBS (Hyclone #SH30070) per 500 mL media for 5–7 days to deplete intracellular folate levels prior to the start of the experiment. Where noted, cells were maintained in complete “high folate” RPMI-1640 media (ATCC #30-2001) with 10% defined FBS to contrast with the low folate conditions.
(§2) Cells were cultured using recommended culture conditions unless noted otherwise (Supplemental Table 3). Cells were plated, dosed with compound and incubated at 37 °C for approximately 2 doubling times as determined for each cell line. Cell Titer Glo (Promega) assay was used to measure proliferation according to manufacturer’s recommendations by measuring luminescence with Flexstation3 (Molecular Devices) with 500 ms integration time. […] The % response was fit to a four-parameter logistic equation using ACTIVITYBASE 4.0 to determine the absolute IC50 values.
(§3) For a limited number of cell lines, compound dosing was performed under high or low folate conditions with cell viability being determined with Alamar Blue rather than an ATP dependent assay. Cells were plated and treated as described above. Proliferation was measured using Alamar Blue Cell Viability Reagent (Invitrogen), and read after approximately 1.5–4 hours incubation at 37 °C on the Envision plate reader (Perkin Elmer) with excitation at 570 nm and emission at 585 nm. The % inhibition for each sample was calculated and fit as described above.

MDA-MB-231 (mammary) = test: as above; format: cell-based; details: Homo sapiens
Description: as §1, §2, §3

NCI-H1299 = test: as above; format: cell-based; details: Homo sapiens
Description: as §1, §2, §3

A101D (melenoma) = test: as above; format: cell-based; details: Homo sapiens
Description: as §1, §2, §3

STK33 = target: T6, STK33 (Homo sapiens, UniProt Q9BYT3); test: CEREP protein kinase assay; format: biochemical
T6 construct: purchased CEREP Panlabs (Eurofins)
T6 sequence (Q9BYT3 whole entry): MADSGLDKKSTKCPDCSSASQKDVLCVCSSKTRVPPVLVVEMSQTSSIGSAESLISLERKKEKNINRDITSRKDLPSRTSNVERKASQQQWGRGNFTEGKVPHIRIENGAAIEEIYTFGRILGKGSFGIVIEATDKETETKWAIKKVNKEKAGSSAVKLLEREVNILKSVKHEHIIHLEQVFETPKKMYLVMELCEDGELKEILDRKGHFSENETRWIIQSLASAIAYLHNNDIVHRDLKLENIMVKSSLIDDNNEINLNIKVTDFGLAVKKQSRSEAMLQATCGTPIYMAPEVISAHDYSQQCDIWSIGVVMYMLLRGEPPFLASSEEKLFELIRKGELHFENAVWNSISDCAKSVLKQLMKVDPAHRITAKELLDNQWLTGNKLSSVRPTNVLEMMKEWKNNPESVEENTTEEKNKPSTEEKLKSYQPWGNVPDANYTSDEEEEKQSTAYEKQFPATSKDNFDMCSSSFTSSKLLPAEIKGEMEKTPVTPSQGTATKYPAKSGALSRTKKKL

[1] = RPMI media, read-out: Alamar Blue GI50 Regular folate
[2] = low folate RPMI media, read-out: Alamar Blue GI50 Low folate

T1 sequence (Q16620 32-822): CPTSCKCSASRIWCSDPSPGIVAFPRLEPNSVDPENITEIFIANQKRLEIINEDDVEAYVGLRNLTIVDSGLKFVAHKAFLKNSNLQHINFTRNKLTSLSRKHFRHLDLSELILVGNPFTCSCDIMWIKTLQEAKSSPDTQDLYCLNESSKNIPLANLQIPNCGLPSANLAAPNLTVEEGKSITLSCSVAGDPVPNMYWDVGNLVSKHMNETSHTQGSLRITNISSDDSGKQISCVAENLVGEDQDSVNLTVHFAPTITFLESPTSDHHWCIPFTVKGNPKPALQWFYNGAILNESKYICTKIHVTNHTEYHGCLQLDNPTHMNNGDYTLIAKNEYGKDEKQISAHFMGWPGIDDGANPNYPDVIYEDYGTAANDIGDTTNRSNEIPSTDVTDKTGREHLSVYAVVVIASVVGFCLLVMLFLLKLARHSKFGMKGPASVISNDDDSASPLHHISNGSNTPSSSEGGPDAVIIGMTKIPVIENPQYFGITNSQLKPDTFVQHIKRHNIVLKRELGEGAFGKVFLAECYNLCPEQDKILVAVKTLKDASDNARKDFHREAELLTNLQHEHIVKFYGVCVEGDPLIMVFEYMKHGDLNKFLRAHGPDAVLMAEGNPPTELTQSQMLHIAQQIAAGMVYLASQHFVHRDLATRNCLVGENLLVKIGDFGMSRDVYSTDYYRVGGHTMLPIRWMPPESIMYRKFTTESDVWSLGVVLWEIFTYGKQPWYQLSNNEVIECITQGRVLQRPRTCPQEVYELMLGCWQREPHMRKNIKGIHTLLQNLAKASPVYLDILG

`O=c1[nH]ccc2cc(F)c(NS(=O)(=O)c3ccc(N4CC[C@@H](O)C4)s3)cc12` [LSN3213128, N-(6-Fluoro-1-oxo-1,2-dihydroisoquinolin-7-yl)-5-[(3R)-3-hydroxypyrrolidin-1-yl]thiophene-2-sulfonamide] showed an inhibition at 0.2 µM (TRKB; @ 0.2 uM) of 2.14%, an inhibition at 2 µM (TRKB; @ 2 uM) of 3.76% and an inhibition at 20 µM (TRKB; @ 20 uM) of 20.3%. For the same compound, the “tumor ZTP” value (MDA-MB-231met2 xenograft; MDA-MB-231met2 tumors) was “No detectable changes”, the “tumor ZMP levels” value (MDA-MB-231met2 xenograft; MDA-MB-231 met2 tumors, 30 and 60 mg/kg) was “dramatically elevated” and the inhibition at 0.2 µM (FMS; @ 0.2 uM) was 2.06%. For the same compound, the inhibition at 2 µM (FMS; @ 2 uM) was 19.2%, the inhibition at 20 µM (FMS; @ 20 uM) was 48.4% and the “peak intracellular ZMP levels” value (MDA-MB-231met2 cells) was “about 770 μM”. For the same compound, the inhibition at 0.2 µM (JAK1; @ 0.2 uM) was -1.48%, the inhibition at 2 µM (JAK1; @ 2 uM) was 5.53% and the inhibition at 20 µM (JAK1; @ 20 uM) was 46.6%. For the same compound, the inhibition at 0.2 µM (RSK3; @ 0.2 uM) was -5.85%, the inhibition at 2 µM (RSK3; @ 2 uM) was -1.32% and the inhibition at 20 µM (RSK3; @ 20 uM) was 9.07%. It also gave an inhibition at 0.2 µM (DRAK1; @ 0.2 uM) of 4.41%, an inhibition at 2 µM (DRAK1; @ 2 uM) of 13.9% and an inhibition at 20 µM (DRAK1; @ 20 uM) of 20.3%. For the same compound, the GI50 (A549 (lung)) was 6 nM, the GI50 (MDA-MB-231 (mammary); [1]) was 85 ± 42 nM and the GI50 (MDA-MB-231 (mammary); [2]) was 0.49 nM. For the same compound, the GI50 (NCI-H1299; [1]) was 1590 nM, the GI50 (NCI-H1299; [2]) was 4.8 nM and the GI50 (A101D (melenoma); [1]) was 3290 nM. For the same compound, the GI50 (A101D (melenoma); [2]) was 2.9 nM, the inhibition at 0.2 µM (STK33; @ 0.2 uM) was -5.61% and the inhibition at 2 µM (STK33; @ 2 uM) was 15.3%. For the same compound, the inhibition at 20 µM (STK33; @ 20 uM) was -1.42%.
